Measured values published in US20110297235A1, “USE OF TRIARYLAMINE DERIVATIVES AS HOLE-CONDUCTING MATERIALS IN ORGANIC SOLAR CELLS AND ORGANIC SOLAR CELLS CONTAINING SAID TRIARYLAMINE DERIVATIVES” (BASF SE, priority 2009, published 2011).
In brackets after ≈: the same amount, converted by molar mass.

What was measured:
[1] = Glass transition temperature Tg and morphology M by means of DSC; assay type: physicochemical
[2] = Decomposition temperature Td by means of TGA; assay type: physicochemical
[3] = physchem; conditions: organic solvent or mixture

| SMILES | glass transition temperature Tg [1] [°C] | decomposition temperature Td [2] [°C] | solubility ([3]; solubility L in chlorobenzene) [mg/mL] | solubility ([3]; solubility in Ethyl acetate) [mg/mL] | solubility ([3]; solubility in Tetrahydrofuran) [mg/mL] | solubility ([3]; solubility in Toluene) [mg/mL] | solubility ([3]; solubility in Anisole) [mg/mL] |
| --- | --- | --- | --- | --- | --- | --- | --- |
| COc1ccc(N(c2ccc(-c3ccc(N(c4ccc(OC)cc4)c4ccc(-c5ccc(N(c6ccc(OC)cc6)c6ccc(C)c(C)c6)cc5)cc4)cc3)cc2)c2ccc(-c3ccc(N(c4ccc(OC)cc4)c4ccc(C)c(C)c4)cc3)cc2)cc1 [ID519] | 128 | 450 | 450 to 900 (≈ 391 to 782 mM) | > 460 | > 500 | 240 to 350 (≈ 208 to 304 mM) |  |
| COc1ccc(C(c2ccc(OC)cc2)c2ccc(N(c3ccc(OC)cc3)c3ccc(-c4ccc(N(c5ccc(OC)cc5)c5ccc(N(c6ccc(OC)cc6)c6ccc(OC)cc6)cc5)cc4)cc3)cc2)cc1 [ID480] | 105 | 430 | > 280 |  |  |  |  |
| COc1ccc(N(c2ccc(OC)cc2)c2ccc(-c3ccc(N(c4ccc(OC)cc4)c4ccc(N(c5ccc(OC)cc5)c5ccc(-c6ccc(N(c7ccc(OC)cc7)c7ccc(OC)cc7)cc6)cc5)cc4)cc3)cc2)cc1 [ID446] | 120 | 430 | 1250 to 2500 (≈ 1160 to 2320 mM) | 50 to 65 (≈ 46.3 to 60.2 mM) | 1000 to 2000 (≈ 927 to 1850 mM) | > 460 |  |
| CCCCC(CC)COc1ccc(N(c2ccc(-c3ccc(N(c4ccc(OC)cc4)c4ccc(OC)cc4)cc3)cc2)c2ccc(-c3ccc(N(c4ccc(OCC(CC)CCCC)cc4)c4ccc(-c5ccc(N(c6ccc(OC)cc6)c6ccc(OC)cc6)cc5)cc4)cc3)cc2)cc1 (stereo not shown) [ID568] | 65 | 360 | > 650 |  |  |  |  |
| COc1ccc(N(c2ccc(OC)cc2)c2ccc(-c3ccc(N(c4ccc(OC)cc4)c4ccc5c(c4)c4cc(N(c6ccc(OC)cc6)c6ccc(-c7ccc(N(c8ccc(OC)cc8)c8ccc(OC)cc8)cc7)cc6)ccc4n5-c4ccccc4)cc3)cc2)cc1 [ID522] | 158 | 450 | 900 to 1400 (≈ 723 to 1120 mM) | 600 to 1200 (≈ 482 to 964 mM) | 400 to 600 (≈ 321 to 482 mM) | 490 to 980 (≈ 394 to 787 mM) |  |
| COc1ccc(N(c2ccc(OC)cc2)c2ccc(-c3ccc(N(c4ccc(-c5ccc(N(c6ccc(-c7ccc(N(c8ccc(OC)cc8)c8ccc(OC)cc8)cc7)cc6)c6cc(F)c(OC)c(F)c6)cc5)cc4)c4cc(F)c(OC)c(F)c4)cc3)cc2)cc1 [ID629] | 134 | 430 | > 2000 | > 1300 | > 2000 | > 1500 | > 1500 |
| COc1ccc(N(c2ccc(OC)cc2)c2ccc(-c3ccc(N(c4ccc(OC)cc4)c4ccc(-c5ccc(N(c6ccc(OC)cc6)c6ccc(-c7ccc(N(c8ccc(OC)cc8)c8ccc(OC)cc8)cc7)cc6)cc5)cc4)cc3)cc2)cc1 [ID367] | 136 | 450 | 700 to 1000 (≈ 606 to 865 mM) | 70 to 80 (≈ 60.6 to 69.2 mM) | 370 to 550 (≈ 320 to 476 mM) | 320 to 500 (≈ 277 to 433 mM) | 450 to 700 (≈ 389 to 606 mM) |
| COc1ccc(N(c2ccc(C)cc2)c2ccc(-c3ccc(N(c4ccc(OC)cc4)c4ccc(-c5ccc(N(c6ccc(OC)cc6)c6ccc(-c7ccc(N(c8ccc(C)cc8)c8ccc(OC)cc8)cc7)cc6)cc5)cc4)cc3)cc2)cc1 [ID572] | 138 | 450 | > 900 | 60 to 100 (≈ 53.4 to 89 mM) | > 800 | > 500 | > 400 |
| CCCCCCC1(CCCCCC)c2cc(N(c3ccc(OC)cc3)c3ccc(-c4ccc(N(c5ccc(OC)cc5)c5ccc(OC)cc5)cc4)cc3)ccc2-c2ccc(N(c3ccc(OC)cc3)c3ccc(-c4ccc(N(c5ccc(OC)cc5)c5ccc(OC)cc5)cc4)cc3)cc21 [ID450] | 105 | 420 | 900 to 1800 (≈ 674 to 1350 mM) |  |  |  |  |
| CCN(CC)c1ccc(N(c2ccc(-c3ccc(N(c4ccc(OC)cc4)c4ccc(OC)cc4)cc3)cc2)c2ccc(-c3ccc(N(c4ccc(-c5ccc(N(c6ccc(OC)cc6)c6ccc(OC)cc6)cc5)cc4)c4ccc(N(CC)CC)cc4)cc3)cc2)cc1 [ID521] | 138 | 420 | 400 to 550 (≈ 323 to 444 mM) | 90 to 110 (≈ 72.7 to 88.9 mM) | 440 to 580 (≈ 356 to 469 mM) | 500 to 1000 (≈ 404 to 808 mM) |  |
| COc1ccc(N(c2ccc(OC)cc2)c2ccc(-c3ccc(N(c4ccc(-c5ccc(N(c6ccc(-c7ccc(N(c8ccc(OC)cc8)c8ccc(OC)cc8)cc7)cc6)c6ccc7c(c6)C(C)(C)c6ccccc6-7)cc5)cc4)c4ccc5c(c4)C(C)(C)c4ccccc4-5)cc3)cc2)cc1 [ID369] | 154 | 460 | 300 to 450 (≈ 226 to 339 mM) | 140 to 280 (≈ 105 to 211 mM) | 100 to 150 (≈ 75.3 to 113 mM) | 140 to 170 (≈ 105 to 128 mM) |  |
| COc1ccc(N(c2ccc(N(c3ccccc3)c3ccc(N(c4ccccc4)c4ccc(N(c5ccc(OC)cc5)c5ccc6c(c5)C(C)(C)c5ccccc5-6)cc4)cc3)cc2)c2ccc3c(c2)C(C)(C)c2ccccc2-3)cc1 [ID366] | 127 | 460 | > 1100 | > 560 | > 440 | > 380 |  |
| COc1ccc(N(c2ccc(OC)cc2)c2ccc(-c3ccc(N(c4ccc(OC)cc4)c4ccc(C5(c6ccc(N(c7ccc(OC)cc7)c7ccc(-c8ccc(N(c9ccc(OC)cc9)c9ccc(OC)cc9)cc8)cc7)cc6)CCCCC5)cc4)cc3)cc2)cc1 [ID452] | 123 | 450 | 650 to 1300 (≈ 525 to 1050 mM) |  | 300 to 600 (≈ 242 to 485 mM) | > 270 |  |
| COc1ccc(N(c2ccc(OC)cc2)c2ccc(-c3ccc(N(c4ccc(OC)cc4)c4ccc5c(c4)Cc4cc(N(c6ccc(OC)cc6)c6ccc(-c7ccc(N(c8ccc(OC)cc8)c8ccc(OC)cc8)cc7)cc6)ccc4-5)cc3)cc2)cc1 [ID523] | 141 | 450 | 1250 to 2500 (≈ 1070 to 2140 mM) | 240 to 480 (≈ 206 to 411 mM) | 400 to 550 (≈ 343 to 471 mM) | 900 to 1800 (≈ 771 to 1540 mM) |  |
| CCCCCCC1(CCCCCC)c2cc(N(c3ccc(OCC(CC)CCCC)cc3)c3ccc(-c4ccc(N(c5ccc(OC)cc5)c5ccc(OC)cc5)cc4)cc3)ccc2-c2ccc(N(c3ccc(OCC(CC)CCCC)cc3)c3ccc(-c4ccc(N(c5ccc(OC)cc5)c5ccc(OC)cc5)cc4)cc3)cc21 (stereo not shown) [ID569] | 47 | 440 | 400 to 800 (≈ 261 to 522 mM) |  |  |  |  |
| COc1ccc(N(c2ccc(OC)cc2)c2ccc(-c3ccc(N(c4ccc(OC)cc4)c4ccc(-c5ccc(N(c6ccc(OC)cc6)c6ccc(-c7ccc(N(c8ccc(OC)cc8)c8ccc(OC)cc8)cc7)cc6)c(C)c5)cc4C)cc3)cc2)cc1 [ID631] | 134 | 440 | > 1300 | 700 to 1400 (≈ 591 to 1180 mM) | 1000 to 2000 (≈ 845 to 1690 mM) | 500 to 1000 (≈ 422 to 845 mM) | 500 to 1000 (≈ 422 to 845 mM) |
| COc1ccc(N(c2ccc(-c3ccc(N(c4ccc(OC)cc4)c4ccc(-c5ccc(N(c6ccc(OC)cc6)c6ccc7c(c6)C(C)(C)c6ccccc6-7)cc5)cc4)cc3)cc2)c2ccc(-c3ccc(N(c4ccc(OC)cc4)c4ccc5c(c4)C(C)(C)c4ccccc4-5)cc3)cc2)cc1 [ID453] | 156 | 440 | 450 to 700 (≈ 339 to 527 mM) | 40 (≈ 30.1 mM) | 340 to 680 (≈ 256 to 512 mM) | 170 to 230 (≈ 128 to 173 mM) |  |
| COc1ccc(N(c2ccc(OC)cc2)c2ccc(-c3ccc(N(c4ccc(OC)cc4)c4ccc(-c5ccc(N(c6ccc(OC)cc6)c6ccc(-c7ccc(N(c8ccc(OC)cc8)c8ccc(OC)cc8)cc7)cc6)s5)s4)cc3)cc2)cc1 [ID575] | 110 | 440 | > 400 |  |  |  |  |
| COc1ccc(N(c2ccc(OC)cc2)c2ccc3c(c2)C2(c4cc(N(c5ccc(OC)cc5)c5ccc(OC)cc5)ccc4-3)c3cc(N(c4ccc(OC)cc4)c4ccc(OC)cc4)ccc3-c3ccc(N(c4ccc(OC)cc4)c4ccc(OC)cc4)cc32)cc1 [spiro-MeOTAD, 2,2′,7,7′-tetrakis(N,N-di-p-methoxyphenyl-amine)-9,9′-spirobifluorene, reference compound] | 120 | 440 | 200 to 230 (≈ 163 to 188 mM) | < 6 | 120 to 160 (≈ 97.9 to 131 mM) | 100 (≈ 81.6 mM) | 65 to 75 (≈ 53 to 61.2 mM) |
| COc1ccc(N(c2ccc(OC)cc2)c2ccc(-c3ccc(N(c4ccc(-c5ccc(N(c6ccc(-c7ccc(N(c8ccc(OC)cc8)c8ccc(OC)cc8)cc7)cc6)c6ccc(C(C)(C)C)cc6)cc5)cc4)c4ccc(C(C)(C)C)cc4)cc3)cc2)cc1 [ID368] | 154 | 460 | 500 to 1000 (≈ 414 to 828 mM) | > 380 | 180 to 360 (≈ 149 to 298 mM) | > 240 |  |
